# Results reported in the supplement of paper PMC10307832.
# What was measured:
# Assay in all cases: relative viability (nuclei count vs DMSO), 5 days (fraction); higher = more cells survive
# BEN = tested on: BEN
# Outline: (§1)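 For relative viability, nuclei counts in treated wells were divided by those in vehicle wells. Lung cancer cell lines had been pin-tool dosed in 1536-well plates the day after seeding and cultured for 5 days, then fixed and stained in one step (final 0.05% Triton X-100, 1% formaldehyde, 1 ug/ml Hoechst) and imaged at 4×. Doses were one drug alone or a fixed anchor-drug dose plus five library-drug doses (not always all listed) in √10 steps, and values are duplicate-plate medians.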
# ChaGo-K-1 = tested on: ChaGo-K-1
# Outline: as §1
# H3255 = tested on: H3255
# Outline: as §1
# HCC-15 = tested on: HCC-15
# Outline: as §1
# HCC-78 = tested on: HCC-78
# Outline: as §1
# LC-2-ad = tested on: LC-2-ad
# Outline: as §1
# LCLC-97TM1 = tested on: LCLC-97TM1
# Outline: as §1
# LK-2 = tested on: LK-2
# Outline: as §1
# LU99A = tested on: LU99A
# Outline: as §1
# LXF-289 = tested on: LXF-289
# Outline: as §1
# NCI-H1651 = tested on: NCI-H1651
# Outline: as §1
# NCI-H1666 = tested on: NCI-H1666
# Outline: as §1
# NCI-H1944 = tested on: NCI-H1944
# Outline: as §1
# NCI-H2087 = tested on: NCI-H2087
# Outline: as §1
# NCI-H2342 = tested on: NCI-H2342
# Outline: as §1
# NCI-H322M = tested on: NCI-H322M
# Outline: as §1
# NCI-H358 = tested on: NCI-H358
# Outline: as §1
# NCI-H596 = tested on: NCI-H596
# Outline: as §1
# NCI-H650 = tested on: NCI-H650
# Outline: as §1
# NCI-H661 = tested on: NCI-H661
# Outline: as §1
# NCI-H838 = tested on: NCI-H838
# Outline: as §1
# PC-3 [JPC-3] = tested on: PC-3 [JPC-3]
# Outline: as §1
# SK-MES-1 = tested on: SK-MES-1
# Outline: as §1
# UMC-11 = tested on: UMC-11
# Outline: as §1
smiles,measurement,setting,value
C[C@@H]1CN(CC(=O)Nc2ccc3c(c2)Cc2cccc(-c4cc(=O)cc(N5CCOCC5)o4)c2S3)C[C@H](C)O1 + COc1cccc2cc(-c3nc([C@H]4CC[C@H](C(=O)O)CC4)n4ncnc(N)c34)[nH]c12 [OSI-027] (partner 0.5 µM),relative viability,BEN; first compound 0.04 µM,0.288
same,relative viability,BEN; first compound 0.1265 µM,0.28
same,relative viability,BEN; first compound 0.4 µM,0.305
same,relative viability,BEN; first compound 4 µM,0.296
same,relative viability,ChaGo-K-1; first compound 0.04 µM,0.525
same,relative viability,ChaGo-K-1; first compound 0.1265 µM,0.593
same,relative viability,ChaGo-K-1; first compound 0.4 µM,0.531
same,relative viability,ChaGo-K-1; first compound 4 µM,0.533
same,relative viability,H3255; first compound 0.04 µM,0.599
same,relative viability,H3255; first compound 0.1265 µM,0.624
same,relative viability,H3255; first compound 0.4 µM,0.48
same,relative viability,H3255; first compound 4 µM,0.491
same,relative viability,HCC-15; first compound 0.04 µM,0.76
same,relative viability,HCC-15; first compound 0.1265 µM,0.606
same,relative viability,HCC-15; first compound 0.4 µM,0.485
same,relative viability,HCC-15; first compound 4 µM,0.524
same,relative viability,HCC-78; first compound 0.04 µM,0.372
same,relative viability,HCC-78; first compound 0.1265 µM,0.358
same,relative viability,HCC-78; first compound 0.4 µM,0.365
same,relative viability,HCC-78; first compound 4 µM,0.384
same,relative viability,LC-2-ad; first compound 0.04 µM,0.984
same,relative viability,LC-2-ad; first compound 0.1265 µM,0.923
same,relative viability,LC-2-ad; first compound 0.4 µM,0.649
same,relative viability,LC-2-ad; first compound 4 µM,0.656
same,relative viability,LCLC-97TM1; first compound 0.04 µM,0.45
same,relative viability,LCLC-97TM1; first compound 0.1265 µM,0.601
same,relative viability,LCLC-97TM1; first compound 0.4 µM,0.408
same,relative viability,LCLC-97TM1; first compound 4 µM,0.509
same,relative viability,LK-2; first compound 0.04 µM,0.196
same,relative viability,LK-2; first compound 0.1265 µM,0.207
same,relative viability,LK-2; first compound 0.4 µM,0.162
same,relative viability,LK-2; first compound 4 µM,0.257
same,relative viability,LU99A; first compound 0.04 µM,0.282
same,relative viability,LU99A; first compound 0.1265 µM,0.34
same,relative viability,LU99A; first compound 0.4 µM,0.299
same,relative viability,LU99A; first compound 4 µM,0.374
same,relative viability,LXF-289; first compound 0.04 µM,0.779
same,relative viability,LXF-289; first compound 0.1265 µM,0.829
same,relative viability,LXF-289; first compound 0.4 µM,0.86
same,relative viability,LXF-289; first compound 4 µM,0.777
same,relative viability,NCI-H1651; first compound 0.04 µM,0.694
same,relative viability,NCI-H1651; first compound 0.1265 µM,0.836
same,relative viability,NCI-H1651; first compound 0.4 µM,0.741
same,relative viability,NCI-H1651; first compound 4 µM,0.585
same,relative viability,NCI-H1666; first compound 0.04 µM,0.932
same,relative viability,NCI-H1666; first compound 0.1265 µM,0.87
same,relative viability,NCI-H1666; first compound 0.4 µM,0.978
same,relative viability,NCI-H1666; first compound 4 µM,0.838
same,relative viability,NCI-H1944; first compound 0.04 µM,0.386
same,relative viability,NCI-H1944; first compound 0.1265 µM,0.475
same,relative viability,NCI-H1944; first compound 0.4 µM,0.389
same,relative viability,NCI-H1944; first compound 4 µM,0.336
same,relative viability,NCI-H2087; first compound 0.04 µM,0.847
same,relative viability,NCI-H2087; first compound 0.1265 µM,0.521
same,relative viability,NCI-H2087; first compound 0.4 µM,0.463
same,relative viability,NCI-H2087; first compound 4 µM,0.457
same,relative viability,NCI-H2342; first compound 0.04 µM,0.647
same,relative viability,NCI-H2342; first compound 0.1265 µM,0.506
same,relative viability,NCI-H2342; first compound 0.4 µM,0.52
same,relative viability,NCI-H2342; first compound 4 µM,0.58
same,relative viability,NCI-H322M; first compound 0.04 µM,0.485
same,relative viability,NCI-H322M; first compound 0.1265 µM,0.643
same,relative viability,NCI-H322M; first compound 0.4 µM,0.5
same,relative viability,NCI-H322M; first compound 4 µM,0.493
same,relative viability,NCI-H358; first compound 0.04 µM,0.679
same,relative viability,NCI-H358; first compound 0.1265 µM,0.673
same,relative viability,NCI-H358; first compound 0.4 µM,0.852
same,relative viability,NCI-H358; first compound 4 µM,0.418
same,relative viability,NCI-H596; first compound 0.04 µM,0.899
same,relative viability,NCI-H596; first compound 0.1265 µM,0.931
same,relative viability,NCI-H596; first compound 0.4 µM,0.537
same,relative viability,NCI-H596; first compound 4 µM,0.549
same,relative viability,NCI-H650; first compound 0.04 µM,0.491
same,relative viability,NCI-H650; first compound 0.1265 µM,0.443
same,relative viability,NCI-H650; first compound 0.4 µM,0.51
same,relative viability,NCI-H650; first compound 4 µM,0.36
same,relative viability,NCI-H661; first compound 0.04 µM,0.694
same,relative viability,NCI-H661; first compound 0.1265 µM,0.701
same,relative viability,NCI-H661; first compound 0.4 µM,0.646
same,relative viability,NCI-H661; first compound 4 µM,0.666
same,relative viability,NCI-H838; first compound 0.04 µM,0.401
same,relative viability,NCI-H838; first compound 0.1265 µM,0.377
same,relative viability,NCI-H838; first compound 0.4 µM,0.312
same,relative viability,NCI-H838; first compound 4 µM,0.288
same,relative viability,PC-3 [JPC-3]; first compound 0.04 µM,0.81
same,relative viability,PC-3 [JPC-3]; first compound 0.1265 µM,0.815
same,relative viability,PC-3 [JPC-3]; first compound 0.4 µM,0.66
same,relative viability,PC-3 [JPC-3]; first compound 4 µM,0.577
same,relative viability,SK-MES-1; first compound 0.04 µM,0.664
same,relative viability,SK-MES-1; first compound 0.1265 µM,0.566
same,relative viability,SK-MES-1; first compound 0.4 µM,0.503
same,relative viability,SK-MES-1; first compound 4 µM,0.49
same,relative viability,UMC-11; first compound 0.04 µM,0.51
same,relative viability,UMC-11; first compound 0.1265 µM,0.464
same,relative viability,UMC-11; first compound 0.4 µM,0.472
same,relative viability,UMC-11; first compound 4 µM,0.352
